Values joined by “and” are separate entries in the source; they are usually repeats but may differ in a detail not shown here. Equal entries are not always repeated. Where two headings read alike, the source gives them in different places.
Target: AtzT (Pseudomonas sp. (strain ADP), UniProt Q936X6)
Test: Surface plasmon resonance (SPR) binding to immobilized AtzT, 1:1 steady-state affinity model
[1] = Biacore S200, CM5 chip, 293 K, HBS-P+ buffer with 2%(v/v) DMSO, mean ± standard deviation (n = 3)

AtzT, sequence (Q936X6 27-360 limits assumed): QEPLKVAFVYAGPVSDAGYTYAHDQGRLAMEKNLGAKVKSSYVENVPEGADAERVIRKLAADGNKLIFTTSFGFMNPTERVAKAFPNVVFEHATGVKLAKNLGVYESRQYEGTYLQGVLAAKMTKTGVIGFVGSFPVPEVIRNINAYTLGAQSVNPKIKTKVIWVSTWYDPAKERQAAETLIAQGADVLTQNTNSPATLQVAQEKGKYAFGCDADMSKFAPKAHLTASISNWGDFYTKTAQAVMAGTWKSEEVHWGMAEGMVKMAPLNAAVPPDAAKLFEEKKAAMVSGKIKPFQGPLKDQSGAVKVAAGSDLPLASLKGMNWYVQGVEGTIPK

SMILES	Kd [1] [µM]	further results
CCNc1nc(O)nc(NC(C)C)n1 [2-Hydroxyatrazine]	2.2 ± 0.2	fold tighter binding than atrazine (2-hydroxyatrazine vs atrazine): ~700 fold and > 600 fold
OB(O)c1ccc(I)cc1 [4-Iodophenylboronic acid]	5000 ± 1000	–
Nc1ncnc2nc[nH]c12 [Adenine]	2.5 ± 0.3	Kd: ~2.5 µM
Nc1nc(N)nc(O)n1 [Ammeline]	0.36 ± 0.02	fold difference in K D between ammeline and ammelide (ammeline vs ammelide): > 250 fold
CCNc1nc(Cl)nc(NC(C)C)n1 [Atrazine]	1500 ± 200	Kd: ~1500 µM
O=C1CC(=O)NC(=O)N1 [Barbaturic acid]	> 8000	–
CCC1(CC)C(=O)NC(=O)NC1=O [Barbitone]	> 8000	–
O=c1[nH]c(=O)[nH]c(=O)[nH]1 [Cyanuric acid]	340 ± 30	–
Nc1cc[nH]c(=O)n1 [Cytosine]	800 ± 90	–
Nc1nc2c(ncn2[C@@H]2O[C@H](COP(=O)(O)OP(=O)(O)OP(=O)(O)O)[C@@H](O)[C@H]2O)c(=O)[nH]1 [GTP]	> 8000	–
Nc1nc2nc[nH]c2c(=O)[nH]1 [Guanine]	0.11 ± 0.02	Kd: ~0.11 µM; time in which the majority of the guanine dissociates from AtzT (Supplementary Fig. S4): ~20 s
Nc1nc(N)nc(N)n1 [Melamine]	> 400	–
O=C(O)c1c(Br)c(Br)c(C(=O)O)c(Br)c1Br [Tetrabromoterephthalic acid]	> 8000	–
Cc1c[nH]c(=O)[nH]c1=O [Thymine]	620 ± 40	–
O=c1cc[nH]c(=O)[nH]1 [Uracil]	1600 ± 300	–

— article PMC6834077, “The evolving story of AtzT, a periplasmic binding protein” (Acta Crystallographica. Section D, Structural Biology, 2019)
